Results reported in paper PMC10748408 (Frontiers in Oncology, 2023).

Experiments:
tumor cells [1] = assay: Cell cycle assay (PI, flow cytometry) of cells isolated from tumors; type: in vivo, BALB/c mice; settings: 25 and 50 mg/kg bodyweight ART vs untreated tumor-bearing mice, p<0.05
Description: Cells (1 x 10^6) were isolated from tissues by collagenase-hyaluronidase digestion and fixed in ice-cold ethanol at -20°C. Samples were washed and resuspended in PBS containing 40 µg/mL RNase A for 1 hr. The cells were then stained with 30 µg/mL propidium iodide in the dark for 30 minutes and analyzed by flow cytometry using the BD Verse (BD Biosciences, USA). Data were analyzed using the BD FACSuite™ software ([35]).

[2] = system: TNF-α, IL-1β, IL-6 and IL-12; assay: Serum pro-inflammatory cytokine ELISA; type: in vivo, BALB/c mice; settings: ART-treated vs untreated tumor-bearing mice
Description: Serum isolated from experimental mice, and conditioned media collected from MDA-MB-231 and 4T1 cells, were used to estimate levels of cytokines by ELISA. To prepare the conditioned media, the cell culture medium containing serum was discarded and cells were washed with serum-free DMEM media. […] After incubation, the conditioned media was collected for cytokine analysis. As per the manufacturer’s protocol, samples were added to the multi-analyte ELISArray wells, coated with antibodies for TNF-α, IL-1β, IL-6 and IL-12 and incubated for 2 hours. Detection antibodies were added, followed by 30 minutes incubation with avidin-HRP. After incubating with the developing solution, stop solution (Qiagen) was added to terminate the reaction ([39]). The O.D. was measured at 450 and 570 nm in an ELISA plate reader (Varioskan Lux, Thermo Fisher; USA).

[3] = system: cells isolated from the liver, kidney and lungs; assay: MTT viability of cells isolated from organs of treated mice; type: in vivo, BALB/c mice; settings: MTT assay
Description: Tissue samples were immersed in 9 parts of serum-free DMEM and 1 part of enzyme cocktail. Digestion was performed at 37°C for 4 hours. Isolated cells were washed well to remove any remaining enzyme, resuspended in ice-cold PBS and filtered through a single cell mesh to dissociate cell clumps. Cell viability was checked using trypan blue dye exclusion test before using the cells for further assays ([21]). 1 x 10^5 viable cells were seeded in a 96-well plate. […] Following treatment, wells were washed to remove the media and 100 µl of PBS was added to each well. Finally, 10 µl of MTT solution (5 mg/mL in PBS) was added and incubated at 37°C for 3 hours. The purple crystals formed were dissolved in 150 µl of DMSO. Absorbance was measured at 570 nm in a multi-plate reader Varioskan™ Lux (Thermo Fisher Scientific, USA; [21]).

MDA-MB-231 cells = assay: Apoptotic cells (Annexin-FITC/PI flow cytometry) with or without CLEC12A overexpression; type: cell-based, Human; settings: MDA-MB-231, non-transfected, ART + (5 µM, 24 hours); without ART 0.5%
Description: Cells, isolated from normal and treated/untreated tumor tissues by collagenase-hyaluronidase digestion, were washed with Ca^2+-free PBS and stained with Annexin V binding buffer (1X). The cells were then incubated with Annexin V-FITC and propidium iodide (PI) for 15 minutes at 37°C. Cells were eventually analyzed on the BD FACS Aria III (Alexa Fluor at 488nm and PE at 570 nm, respectively). The percentage of apoptotic and necrotic cells were analyzed using the […]™ software (BD Biosciences, USA; [37]). For transfection, MDA-MB-231 and 4T1 cells were grown in a 6-well plate until they reached 70% confluency. CLEC12A-pcDNA recombinant/empty DNA plasmid (2500ng) or pcDNA empty vector (2500ng) was transfected into cells using 5μl Lipofectamine® 2000 reagent. […] Finally, transfection efficiency was confirmed by western blot analysis ([42]).

tumor cells [4] = assay: Autophagic cells (acridine orange, flow cytometry) in cells isolated from tumors; type: in vivo, BALB/c mice; settings: tumor-bearing mice, T+6.25 to T+50 mg/kg, vs Tumor
Description: Acidic vesicular organelles (AVOs) were examined by microscopy and quantified using flow cytometry of acridine orange (AO) stained cells. Cells were isolated from tissues by collagenase-hyaluronidase digestion and stained with AO (1µg/ml) by incubation at 37°C for 15 minutes in dark. Following subsequent PBS washes, the cells were observed under Olympus laser-scanning confocal microscope (FV-10 ASW 3.0 viewer image browser) at 450 and 593 nm to determine AVOs.

4T1 mammary tumors = assay: Tumor size, weight and volume in 4T1 mammary tumor model; type: in vivo, BALB/c mice; settings: 12.5, 25 and 50 mg/kg body weight of ART vs untreated tumor-bearing mice
Description: (§1) Mouse mammary 4T1 cells in passage numbers between 7 and 12 (10^4 cells/ml in 50 µl PBS) were injected into the inguinal 4th mammary fat pad of BALB/c mice ([23], [24]). Normal mice received an equal volume of sterile PBS. A palpable tumor was allowed to develop for 14 days ([24]). […] Normal (mammary fat pad surrounding the 4th inguinal mammary pad), mammary tumor, and organs like lungs, kidney, liver, and blood were collected at the end of the experimental schedule. Body weight and tumor volume of each mouse were recorded daily during the tenure of the experiment. Tumor volume was calculated using the following formula: length (mm) × width^2 (mm) × 0.52 ([25]).

Body weight of mice = type: in vivo, BALB/c mice
Description: as §1

beclin1 and LC3α/β = assay: Western blot of autophagic markers in tumor tissues; type: in vivo, BALB/c mice; settings: ART dose-dependent
Description: Normal and tumor tissues were homogenized in ice-cold radioimmunoprecipitation assay (RIPA) buffer containing a protease inhibitor cocktail. Proteins were resolved by 10% sodium dodecyl sulphate-polyacrylamide gel electrophoresis (SDS-PAGE), transferred onto polyvinylidene difluoride (PVDF) membranes, blocked with 5% fat-free milk and incubated with primary antibodies (1:1000 dilution) overnight at 4°C. Blots were subsequently washed and incubated with respective secondary antibodies, tagged with horseradish peroxidase. Protein expression was detected using enhanced chemiluminescence (ECL) kit ([37]). Blots were analyzed using the Gel Doc XR and band intensity quantified using ImageJ software (NIH, USA).

C[C@@H]1CC[C@H]2[C@@H](C)C(=O)O[C@@H]3O[C@@]4(C)CC[C@@H]1[C@]32OO4 [ART, Artemisinin]
percentage of G2/M cell count (tumor cells [1]): significant increase | levels of pro-inflammatory cytokines (TNF-α, IL-1β, IL-6 and IL-12) [2]: dose-dependent reduction | viability of cells isolated from the liver, kidney and lungs ([3]; normal mice treated with ART): no loss of viability | viability of cells isolated from the liver, kidney and lungs ([3]; tumor-bearing mice, increasing doses of ART): significantly increased cell viability | percentage of apoptotic cells (MDA-MB-231 cells): 22% | percentage of autophagic cells (tumor cells [4]): dose-dependent decrease | tumor weight and volume (4T1 mammary tumors): Significant decrease | body weight (Body weight of mice; normal mice, ART 6.25-50 mg/kg, 7 days, vs vehicle): did not alter | body weight (Body weight of mice; tumor-bearing mice, ART treatment, dose-dependent): restored towards normal values | expression of autophagic markers, beclin1 and LC3α/β (beclin1 and LC3α/β): decreased expression
